Earlier results on one sequence are cited in PMC8875074, “Development of Bactericidal Peptides against Multidrug-Resistant Acinetobacter baumannii with Enhanced Stability and Low Toxicity” (International Journal of Molecular Sciences, 2022).

The conditions of this data set: cited from earlier work. The source says:
A pair of test peptides, TP2-5 and TP2-6, were selected from a previous design based on tilapia piscidin 2 (TP2). […] Both TP2-5 and TP2-6 are nonhaemolytic and noncytotoxic an ...

As to “GECIWDAIFHGAKHFLHRLVNP [TP2, tilapia piscidin 2]”, the antimicrobial activity result was “without antimicrobial activity” and the net positive charge entry was “negligible or no net positive charge”.
